These results are taken from patent US8802675B2, “Neuroprotective multifunctional compounds and pharmaceutical compositions comprising them” (priority 2009, dated 2014).

Test [1] has as its target AChE (Homo sapiens, UniProt P22303). The experiment in a line: Conversion of pro-chelator by AChE into active chelator (UV-vis and MS of extract). Type of test: biochemical. The conditions noted are these: extract from a solution of AChE titrated with metal salts. The method, then: When ZnCl2, or CuSO4 were titrated into the extract, two new bands at around 365 nm or 375 nm appeared, corresponding to the formation of […], respectively. […] This finding was reinforced by mass spectrometry analysis of the extract, which gave a value of m/z 227.22, corresponding to m/z of [M30+H]^+.
When FeCl3 or FeSO4 were titrated to an extract from a solution of AChE into which compound 23 was added, new bands at around 460 nm and 590 nm appeared exactly matching the absorption of HLA20−Fe in FIG. 2A. Titration of CuSO4 or ZnCl2 to the extract introduced new bands at around 370 nm or 360 nm, corresponding to the absorption of the complexes […], respectively.

Test [2] concerns the target T1, rat brain MAO-B (Rattus norvegicus, UniProt P19643).
T1 construct: from tissue; host or cells: rat brain homogenate
T1 sequence (P19643 1-520): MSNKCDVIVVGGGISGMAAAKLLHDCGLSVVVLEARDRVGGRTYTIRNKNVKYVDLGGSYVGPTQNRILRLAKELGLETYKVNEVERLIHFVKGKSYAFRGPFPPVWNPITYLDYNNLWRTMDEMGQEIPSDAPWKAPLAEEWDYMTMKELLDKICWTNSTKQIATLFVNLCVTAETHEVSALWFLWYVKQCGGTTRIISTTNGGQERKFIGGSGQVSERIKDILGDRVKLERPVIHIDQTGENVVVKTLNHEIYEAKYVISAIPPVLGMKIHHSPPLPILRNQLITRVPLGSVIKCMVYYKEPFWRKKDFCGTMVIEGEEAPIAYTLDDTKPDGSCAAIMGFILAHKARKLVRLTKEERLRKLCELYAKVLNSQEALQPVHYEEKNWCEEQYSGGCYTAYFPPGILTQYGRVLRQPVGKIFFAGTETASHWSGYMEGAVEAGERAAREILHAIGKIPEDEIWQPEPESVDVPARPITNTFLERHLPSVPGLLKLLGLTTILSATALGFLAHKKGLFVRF
The experiment in a line: biochemical. As to conditions: for inhibition at 10 µM: read-out: percent inhibition MAO-B.

In test [3] the target is T2, total cholinesterase (ChE) (Rattus norvegicus, UniProt P37136).
T2 sequence (P37136 32-614): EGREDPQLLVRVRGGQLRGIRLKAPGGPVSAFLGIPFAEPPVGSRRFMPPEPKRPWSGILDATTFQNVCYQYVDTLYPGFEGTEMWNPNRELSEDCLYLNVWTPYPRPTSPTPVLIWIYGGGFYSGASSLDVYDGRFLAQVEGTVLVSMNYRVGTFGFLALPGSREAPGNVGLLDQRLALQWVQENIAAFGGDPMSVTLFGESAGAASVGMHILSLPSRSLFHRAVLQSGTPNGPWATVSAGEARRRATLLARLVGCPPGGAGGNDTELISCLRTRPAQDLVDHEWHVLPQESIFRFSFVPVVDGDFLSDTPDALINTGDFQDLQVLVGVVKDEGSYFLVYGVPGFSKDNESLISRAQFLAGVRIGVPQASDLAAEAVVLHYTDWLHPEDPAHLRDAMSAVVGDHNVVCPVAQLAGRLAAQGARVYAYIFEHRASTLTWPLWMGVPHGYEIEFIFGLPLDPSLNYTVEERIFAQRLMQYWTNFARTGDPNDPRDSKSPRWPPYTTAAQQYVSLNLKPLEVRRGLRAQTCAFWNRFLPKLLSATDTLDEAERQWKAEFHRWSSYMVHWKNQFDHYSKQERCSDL
The experiment in a line: Total cholinesterase inhibition in rat brain homogenates (Ellman). The class given is biochemical. The method, then: Cholinesterase activity was determined in rat brain homogenate following incubation with varying concentrations of the multifunctional pro-chelators of the invention (also referred to herein as “carbamates”).
Ellman's colorimetric method was adapted for determination of total cholinesterase (ChE) and butyrylcholinesterase (BuChE) activities in rat brain homogenates. Brain tissue from adult Wistar rats was homogenized at 2% w/v (or 10% w/v, for BuChE) in 0.1 M sodium phosphate buffer, pH 7.4, with added NaCl 58.5 g/l and Triton X-100 0.05% v/v. Aliquots of homogenate (20 μl) were incubated with the test compounds for designed time intervals in phosphate buffer pH 7.4, before addition of 5,5′-dithiobis(2-nitrobenzoic) acid and either 1 mM acetylthiocholine iodide or 10 mM butyrylthiocholine iodide (Sigma, St. Louis, Mo.). The reaction was run at 37° C. in a final volume of […] in 96-well microplates and was followed at 412 nm for 5 min with a plate reader. In every experiment, cholinesterase-independent (nonspecific) substrate hydrolysis was determined by including one experimental group treated with tacrine 30 μM. Appropriate tissue and reagent blanks were also included. Reaction velocities were determined in three or four replicates per condition; these were averaged and expressed as percent activity relative to control (solvent), after subtracting the rate of nonspecific hydrolysis.
The results are the mean SEM, n=3 in triplicates. ND—not determined.
A general note: Ellman's reagent forms a yellow product with free thiols.

[4] abbreviates: IC50 MAO-B, rat brain homogenate in vitro, mean SEM, n=3 in triplicates.

Values joined by “and” are separate entries in the source; they are usually repeats but may differ in a detail not shown here. Identical values can stand only once. Like-named read-outs stand apart in the source and are kept apart here.

Usually inhibition stands for the percentage by which the read-out fell short of the control. Broadly, the IC50 is the concentration that gives 50% inhibition. A low value points to greater potency.

Sequence of AChE (P22303 32-614): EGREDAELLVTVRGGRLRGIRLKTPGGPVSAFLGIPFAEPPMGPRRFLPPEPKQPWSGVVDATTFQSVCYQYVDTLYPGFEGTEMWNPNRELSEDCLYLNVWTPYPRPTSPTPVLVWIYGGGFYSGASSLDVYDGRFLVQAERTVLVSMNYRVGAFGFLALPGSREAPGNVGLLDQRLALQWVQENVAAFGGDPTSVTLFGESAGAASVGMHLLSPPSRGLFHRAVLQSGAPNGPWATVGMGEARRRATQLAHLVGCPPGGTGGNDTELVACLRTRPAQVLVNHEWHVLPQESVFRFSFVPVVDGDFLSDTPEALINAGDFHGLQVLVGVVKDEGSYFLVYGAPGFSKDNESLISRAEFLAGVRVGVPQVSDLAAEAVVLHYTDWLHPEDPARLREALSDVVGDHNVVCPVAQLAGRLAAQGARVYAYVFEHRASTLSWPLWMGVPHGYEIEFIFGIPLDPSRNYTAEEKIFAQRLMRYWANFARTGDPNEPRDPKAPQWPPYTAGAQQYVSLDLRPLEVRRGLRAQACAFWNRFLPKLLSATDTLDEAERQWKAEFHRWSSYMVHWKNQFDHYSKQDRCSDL

As for `C#CCC1CCN(Cc2ccc(OC(=O)N(C)C)c3ncccc23)CC1` [Compound 23, 5-((4-(propargyl)piperidin-1-yl)methyl)quinolin-8-yl dimethylcarbamate], the “conversion by AChE to active chelator” value in test [1] is on record as “converted compound 23 back into HLA20”. The “inhibitory effect on MAO-B” value in test [2] (rat brain homogenate) is on record as “minor to none inhibitory effects”. For the same molecule, the inhibition at 10 µM in test [2] came to 3%.
`C#CCN(C)Cc1ccc(OC(=O)N(C)CC)c2ncccc12` [Compound 3, 5-((methyl(propargyl)amino)methyl)quinolin-8-yl ethyl(methyl)carbamate]: the IC50 in test [3] (rat brain homogenates, mean SEM, n=3 in triplicates) was 9.8 µM. Further, the inhibition at 10 µM in test [2] turned out to be 9%.
As to `C#CCN(C)Cc1ccc(OC(=O)N2CCCC2)c2ncccc12` [Compound 5, 5-((methyl(propargyl)amino)methyl)quinolin-8-yl pyrrolidine-1-carboxylate], the IC50 in test [2] (setting [4]) was 5.06 µM and 5.6 µM.
In the case of `C#CCN(C)Cc1ccc(O)c2ncccc12` [M30, reference compound], the IC50 in test [3] was 114 µM; in test [2] it was 0.057 ± 0.01 µM.
Take `C#CCN(C)Cc1ccc(OC(=O)N2CCN(Cc3ccccc3)CC2)c2ncccc12` [Compound 13, 5-((methyl(propargyl)amino)methyl)quinolin-8-yl 4-benzyl piperazine-1-carboxylate]: the “conversion by AChE to active chelator” value in test [1] was “converted by AChE back into M30”. The molecule also showed an IC50 in test [2] (setting [4]) of 0.084 µM.
